# In ChEMBL document CHEMBL4665643 (Bioorg Med Chem Lett, 2019):
# Columns and labels:
# [1] = target: Leucine-rich repeat serine/threonine-protein kinase 2 (Homo sapiens, UniProt Q5S007); test: Inhibition of recombinant human GST-tagged LRRK2 (970 to 2527 residues) expressed in baculovirus expression system using LRRKtide as substrate incubated for 60 mins by Adapta assay
# [2] = target: Angiopoietin-1 receptor (Homo sapiens) (UniProt Q02763); test: Inhibition of recombinant human GST-tagged TIE2 (817 to 1101 residues) expressed in baculovirus expression system using […] as substrate at 0.1 uM incubated for 60 mins by Z'-Lyte assay relative to control
# [3] = target: Serine/threonine-protein kinase mTOR (Homo sapiens) (UniProt P42345); test: Inhibition of recombinant human GST-tagged mTOR (1360 to 2549 residues) expressed in Escherichia coli expression system using Ser/Thr 11 as substrate at 0.1 uM incubated for 60 mins by Z'-Lyte assay relative to control
# [4] = target: T1, Tyrosine-protein kinase JAK2 (Homo sapiens, UniProt O60674)
# Description: Inhibition of recombinant human JAK2 (812 to 1132 residues) expressed in insect cells using Y1-B as substrate incubated for 30 mins by microfluidic mobility shift assay
# [5] = target: Tyrosine-protein kinase JAK1 (Homo sapiens, UniProt P23458); test: biochemical
# Description: Inhibition of recombinant human JAK1 (854 to 1154 residues) expressed in insect cells using Y1-B as substrate incubated for 30 mins by microfluidic mobility shift assay
# [6] = target: T1, Tyrosine-protein kinase JAK2; test: Inhibition of recombinant human GST-tagged JAK2 (809 to 1153 residues) expressed in baculovirus expression system using Tyr 06 as substrate at 0.1 uM incubated for 60 mins by Z'-lyte assay relative to control
# [7] = target: Tyrosine-protein kinase receptor UFO (Homo sapiens) (UniProt P30530); test: Inhibition of recombinant human GST-tagged full length AXL expressed in insect expression system using Tyr 06 as substrate at 0.1 uM incubated for 60 mins by Z'-Lyte assay relative to control
# [8] = target: Serine/threonine-protein kinase Sgk1 (Homo sapiens) (UniProt O00141); test: Inhibition of recombinant human GST-tagged […] SGK1 (60 to 431 residues) expressed in baculovirus expression system using Ser/Thr 06 as substrate at 0.1 uM incubated for 60 mins by Z'-Lyte assay relative to control
# [9] = target: Inhibitor of nuclear factor kappa-B kinase subunit alpha (Homo sapiens) (UniProt O15111); test: Inhibition of recombinant human His-tagged full length IKKalpha expressed in baculovirus expression system at 0.1 uM incubated for 60 mins by Adapta assay relative to control
# Inhibitor of nuclear factor kappa-B kinase subunit alpha (Homo sapiens), sequence (O15111 whole entry): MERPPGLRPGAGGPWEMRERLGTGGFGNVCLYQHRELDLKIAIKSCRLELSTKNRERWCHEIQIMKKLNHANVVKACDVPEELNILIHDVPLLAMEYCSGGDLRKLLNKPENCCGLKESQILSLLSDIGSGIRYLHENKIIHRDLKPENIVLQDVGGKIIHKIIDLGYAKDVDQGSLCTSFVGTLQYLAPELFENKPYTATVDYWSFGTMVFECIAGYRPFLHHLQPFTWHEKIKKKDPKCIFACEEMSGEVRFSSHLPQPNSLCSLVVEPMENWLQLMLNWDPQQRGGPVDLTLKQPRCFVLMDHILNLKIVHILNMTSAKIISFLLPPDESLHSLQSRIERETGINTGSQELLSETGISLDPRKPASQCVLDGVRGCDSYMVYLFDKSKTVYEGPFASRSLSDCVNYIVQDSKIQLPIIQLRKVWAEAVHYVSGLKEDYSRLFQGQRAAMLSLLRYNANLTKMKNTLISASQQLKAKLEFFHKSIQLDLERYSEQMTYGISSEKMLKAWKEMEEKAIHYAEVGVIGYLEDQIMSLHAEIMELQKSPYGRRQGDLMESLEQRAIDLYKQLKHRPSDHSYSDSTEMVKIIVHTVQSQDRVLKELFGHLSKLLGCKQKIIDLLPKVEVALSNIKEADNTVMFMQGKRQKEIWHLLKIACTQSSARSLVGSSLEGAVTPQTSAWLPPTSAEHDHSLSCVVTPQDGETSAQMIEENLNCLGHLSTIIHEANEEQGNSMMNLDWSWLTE
# T1 sequence (O60674 whole entry): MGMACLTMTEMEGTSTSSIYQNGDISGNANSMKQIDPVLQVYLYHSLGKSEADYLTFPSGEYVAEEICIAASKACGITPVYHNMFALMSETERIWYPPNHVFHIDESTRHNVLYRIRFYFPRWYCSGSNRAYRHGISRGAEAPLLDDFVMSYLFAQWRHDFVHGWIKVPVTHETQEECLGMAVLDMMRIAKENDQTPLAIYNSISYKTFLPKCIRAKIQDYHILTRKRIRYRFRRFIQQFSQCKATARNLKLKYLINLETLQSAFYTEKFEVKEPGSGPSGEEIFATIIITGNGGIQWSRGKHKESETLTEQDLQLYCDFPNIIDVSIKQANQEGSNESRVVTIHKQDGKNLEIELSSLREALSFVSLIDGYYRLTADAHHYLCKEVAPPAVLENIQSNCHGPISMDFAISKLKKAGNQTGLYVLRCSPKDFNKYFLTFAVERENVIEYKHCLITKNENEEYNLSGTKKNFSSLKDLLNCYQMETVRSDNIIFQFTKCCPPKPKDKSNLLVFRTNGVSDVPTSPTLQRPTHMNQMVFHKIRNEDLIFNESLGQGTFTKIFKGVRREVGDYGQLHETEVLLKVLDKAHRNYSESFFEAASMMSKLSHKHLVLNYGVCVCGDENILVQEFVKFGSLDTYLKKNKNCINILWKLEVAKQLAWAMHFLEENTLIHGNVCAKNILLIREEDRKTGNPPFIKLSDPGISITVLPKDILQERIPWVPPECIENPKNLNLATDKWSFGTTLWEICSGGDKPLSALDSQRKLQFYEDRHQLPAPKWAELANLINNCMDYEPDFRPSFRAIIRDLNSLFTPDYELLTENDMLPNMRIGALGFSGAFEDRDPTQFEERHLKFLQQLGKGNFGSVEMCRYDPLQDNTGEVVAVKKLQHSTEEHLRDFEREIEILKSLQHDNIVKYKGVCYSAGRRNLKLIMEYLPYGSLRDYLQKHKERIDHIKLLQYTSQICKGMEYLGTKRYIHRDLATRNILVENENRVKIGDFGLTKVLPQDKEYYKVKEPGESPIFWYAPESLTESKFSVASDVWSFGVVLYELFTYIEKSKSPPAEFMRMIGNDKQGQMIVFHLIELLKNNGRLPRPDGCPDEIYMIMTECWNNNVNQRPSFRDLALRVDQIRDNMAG
# Angiopoietin-1 receptor (Homo sapiens), sequence (Q02763 whole entry, the tested form may be a part): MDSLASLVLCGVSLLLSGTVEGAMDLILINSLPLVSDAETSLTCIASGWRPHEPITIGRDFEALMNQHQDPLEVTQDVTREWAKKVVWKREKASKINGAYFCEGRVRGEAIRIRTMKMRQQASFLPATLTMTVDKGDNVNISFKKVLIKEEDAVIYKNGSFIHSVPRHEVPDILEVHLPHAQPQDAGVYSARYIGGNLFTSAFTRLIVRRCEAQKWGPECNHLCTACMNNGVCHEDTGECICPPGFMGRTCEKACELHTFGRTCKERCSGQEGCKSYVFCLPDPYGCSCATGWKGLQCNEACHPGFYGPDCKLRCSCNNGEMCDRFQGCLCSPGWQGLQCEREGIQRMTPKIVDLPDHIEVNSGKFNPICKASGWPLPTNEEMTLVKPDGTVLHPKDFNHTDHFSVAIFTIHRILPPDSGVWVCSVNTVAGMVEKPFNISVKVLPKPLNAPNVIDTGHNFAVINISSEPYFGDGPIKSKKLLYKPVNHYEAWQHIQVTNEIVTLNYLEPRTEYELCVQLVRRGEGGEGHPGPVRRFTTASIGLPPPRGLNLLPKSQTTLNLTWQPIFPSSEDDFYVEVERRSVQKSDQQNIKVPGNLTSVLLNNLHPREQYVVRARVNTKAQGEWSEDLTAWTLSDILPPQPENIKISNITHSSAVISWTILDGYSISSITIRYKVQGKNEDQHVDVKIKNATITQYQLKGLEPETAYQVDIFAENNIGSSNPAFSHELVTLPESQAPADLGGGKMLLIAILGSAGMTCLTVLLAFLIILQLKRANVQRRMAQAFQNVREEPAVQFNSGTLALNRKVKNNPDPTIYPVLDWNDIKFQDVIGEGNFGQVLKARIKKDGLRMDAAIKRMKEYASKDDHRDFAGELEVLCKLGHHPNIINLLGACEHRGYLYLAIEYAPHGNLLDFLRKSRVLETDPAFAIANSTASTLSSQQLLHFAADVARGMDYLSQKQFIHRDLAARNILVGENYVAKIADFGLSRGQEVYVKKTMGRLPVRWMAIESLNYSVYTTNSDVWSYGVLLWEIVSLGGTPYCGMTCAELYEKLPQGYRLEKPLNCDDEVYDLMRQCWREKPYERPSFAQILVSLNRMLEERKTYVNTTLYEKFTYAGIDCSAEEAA
# Serine/threonine-protein kinase Sgk1 (Homo sapiens), sequence (O00141 whole entry, the tested form may be a part): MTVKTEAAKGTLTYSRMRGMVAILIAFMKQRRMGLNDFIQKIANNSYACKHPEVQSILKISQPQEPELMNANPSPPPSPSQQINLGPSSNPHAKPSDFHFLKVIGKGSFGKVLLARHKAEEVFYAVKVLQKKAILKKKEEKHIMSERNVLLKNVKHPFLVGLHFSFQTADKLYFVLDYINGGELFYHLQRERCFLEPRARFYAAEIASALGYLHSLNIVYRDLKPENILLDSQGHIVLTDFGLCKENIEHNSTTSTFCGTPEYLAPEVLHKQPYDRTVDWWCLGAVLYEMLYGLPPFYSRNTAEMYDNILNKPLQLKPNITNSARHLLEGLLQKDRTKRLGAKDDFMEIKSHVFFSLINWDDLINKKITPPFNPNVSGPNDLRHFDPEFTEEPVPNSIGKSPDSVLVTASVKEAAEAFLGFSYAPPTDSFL
# Tyrosine-protein kinase receptor UFO (Homo sapiens), sequence (P30530 whole entry, the tested form may be a part): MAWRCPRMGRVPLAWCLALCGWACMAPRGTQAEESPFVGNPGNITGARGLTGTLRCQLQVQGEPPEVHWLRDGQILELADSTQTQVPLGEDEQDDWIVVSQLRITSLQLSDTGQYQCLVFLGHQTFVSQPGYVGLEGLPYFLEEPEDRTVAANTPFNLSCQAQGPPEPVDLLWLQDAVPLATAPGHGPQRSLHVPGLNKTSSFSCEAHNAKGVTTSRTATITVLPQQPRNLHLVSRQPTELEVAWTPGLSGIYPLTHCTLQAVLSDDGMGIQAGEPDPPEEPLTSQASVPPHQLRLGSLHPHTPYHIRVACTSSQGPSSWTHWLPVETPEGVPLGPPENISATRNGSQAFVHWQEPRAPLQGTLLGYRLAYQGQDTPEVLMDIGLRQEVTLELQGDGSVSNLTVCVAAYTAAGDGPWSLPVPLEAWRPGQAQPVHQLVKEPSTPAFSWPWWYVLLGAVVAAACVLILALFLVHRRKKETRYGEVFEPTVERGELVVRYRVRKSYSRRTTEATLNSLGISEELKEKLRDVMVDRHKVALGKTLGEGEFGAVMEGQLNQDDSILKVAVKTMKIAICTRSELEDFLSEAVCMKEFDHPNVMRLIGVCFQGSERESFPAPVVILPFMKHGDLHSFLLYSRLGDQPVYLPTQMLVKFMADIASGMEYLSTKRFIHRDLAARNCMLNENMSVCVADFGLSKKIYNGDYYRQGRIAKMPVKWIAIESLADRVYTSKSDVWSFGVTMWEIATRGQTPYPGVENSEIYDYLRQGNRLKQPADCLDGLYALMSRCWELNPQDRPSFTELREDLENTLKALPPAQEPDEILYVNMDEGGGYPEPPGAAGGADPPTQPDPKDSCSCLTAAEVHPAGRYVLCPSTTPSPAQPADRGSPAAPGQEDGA
Compound,IC50 [1],inhibition [2],inhibition [3],Ki [4],Ki [5],inhibition [6],inhibition [7],inhibition [8],inhibition [9]
O=C(Nc1c[nH]nc1-c1cc(Cl)ccc1OC(F)F)c1cnn2cccnc12,18000 pM,12%,1%,71 pM,210 pM,,,,
O=C(Nc1c[nH]nc1-c1cc2ccccc2cc1OC(F)F)c1cnn2cccnc12,180000 pM,,5%,,,97%,0%,-4%,6%
Cn1cc(NC(=O)c2cnn3cccnc23)c(-c2cc(Cl)ccc2OC(F)F)n1,,3%,-3%,88 pM,210 pM,98%,5%,7%,-3%
